Measurements published in patent US20200063104A1, “EXPANSION OF HPSC-DERIVED GRANULOCYTIC AND LYMPHOID PROGENITORS WITH UM171” (Wisconsin Alumni Research Foundation, priority 2018, published 2020).

Assays:
[1] = system: hPSCs (NK cell production); conditions: 28-day period, prior studies; cited from earlier work
[2] = system: CD34+CD43+ hPSC-derived HPs; assay: Expansion of hPSC-derived hematopoietic progenitors in HSC expansion conditions (flow cytometry); format: cell-based, human
Text: To understand the effect of UM171 on hPSC-derived HPs and provide mechanistic insight on its action, we performed hematopoietic differentiation of H1 hESCs in defined feeder- and serum-free defined conditions for 9 days to generate HPs^10. We then cultured the cells in SFEM medium supplemented with cytokines that support expansion of HSCs (TPO, SCF, FLT3L, IL3 and IL6), and with UM171 or DMSO (negative control) (FIG. 1A). […] Overall, cultures with UM171 generated up to 10-fold higher numbers of CD34^+CD43^+CD45^+ HPs, as compared to control cultures.
Hematopoietic progenitors from Day 9 differentiation cultures were expanded in StemSpan™-SFEM (Stem Cell Technologies), supplemented with 35 nM UM171 (Xcess Biosciences), or equivalent volume of DMSO, and 100 ng/ml TPO, 100 ng/ml SCF, 100 ng/ml FLT3L, 50 ng/ml IL-6, and 10 ng/ml IL-3. Expansion cultures were supplemented with fresh StemSpan™-SFEM (Stem Cell Technologies) media with the same cytokine concentrations, every 3 days. Cells were plated at up to 150,000 cells/ml. At day 5 or indicated time points, cells were collected for flow cytometric (FCM) analysis and CFU assay. […]

[3] = system: CD34+CD43+ hPSC-derived HPs; assay: Apoptosis by annexin V assay in HP expansion cultures; format: cell-based, human; conditions: 5 days of expansion, UM171 vs DMSO
Method: (§1) For apoptosis detection, cells were stained with CD34-FITC, CD45-BV421, and CD43-APC (BD Pharmingen), along with PI and Annexin V-PE (BD Pharmingen), and analyzed by flow cytometry. To assess proliferation of hematopoietic progenitors, using cell proliferation antigen Ki-67, cells were incubated with CD34-PE, CD43-BV421 (BD Pharmingen), and Ghost violet 540 cell viability dye (TONBO Biosciences). Cells were then fixed and permeabilized with 70% ethanol, and stained with Ki67-APC (Miltenyi Biotech), according to the manufacturer protocol, and analyzed by flow cytometry. Cell cycle analysis of total hematopoietic progenitors was carried out using the FITC BrdU flow kit (BD Pharmingen), following manufacturer recommendations. On day four of HP expansion in HSC or lymphoid expansion conditions and on day 3 of NK differentiation cells were labelled with BrdU. […] CD34^+CD43^+CD45^+ and CD34^+CD43^+CD45^+CD41a^+ hematopoietic progenitors, CD34^+CD45^+CD7^+, lymphoid progenitors, or CD45^+CD56^+ NK cells were then analyzed for cell cycle kinetics and proliferation, through BrdU incorporation.

[4] = system: hPSC-derived HPs (NK cell production); assay: NK cell differentiation of hPSC-derived HPs on OP9-DLL4; format: cell-based, human
Text: To assess the effect of UM171 on NK cell differentiation, we collected HPs from hPSC cultures on day 9 of differentiation, and cultured them on OP9-DLL4, with or without UM171, as shown in FIG. 5A. After 14 days, these cultures generated CD56^+ NK cells that expressed CD94 and CD16, markers of mature NK cells. Although UM171 had no effect on the percentages of NK cells or their phenotype, the absolute numbers of NK cells generated with UM171 were approximately 10-fold higher as compare to DMSO controls (FIG. 5B-D). […] Similar findings were obtained with HPs generated from H9 hESCs and the IISH2i-BM9 iPSC line that was derived from bone marrow mononuclear cells (FIG. 9).
NK differentiation of hematopoietic progenitor cells was performed in α-MEM (Gibco), supplemented with 20% FBS (HyClone), on mouse OP9-DLL4 expressing feeder layer, in two stages. In stage 1, hematopoietic progenitor cells were cultured for 7 days on OP9-DLL4, with 100 ng/ml FLT3L, 40 ng/ml SCF, and 5 ng/ml IL-7 (Peprotech), and 35 nM UM171 or equivalent volume DMSO. Cells were then transferred to fresh α-MEM media, supplemented with 10 ng/ml Il-2 and 5 ng/ml IL-15 (Peprotech), and with or without UM171 treatment. Media was topped up with one volume fresh media, every 3-4 days, and cultures were transferred to new OP9-DLL4 cells, every 7 days. After 14 to 21 days, cells were harvested for flow cytometry and other analyses. OP9-DLL4 were used at 75-80% confluency.

[5] = system: CD34+CD45+CD7+ progenitors; assay: BrdU cell cycle analysis in NK differentiation cultures; format: cell-based, human; conditions: lymphoid stage of NK differentiation
Method: as §1

[6] = system: hPSC-derived HPs (CFC potential); assay: Methylcellulose colony forming assay of expanded HPs; format: cell-based, human
Method: Hematopoietic colony forming potential was assessed by combining cells of interest with 1.5 ml serum containing H4436 Methocult (Stem Cell Technologies). Cell suspensions were then transferred to 35-mm dishes and cultured for 12-14 days at 37° C. Hematopoietic colonies were scored according to cellular morphology, and CFC numbers were normalized to the number of cells plated (CFCs/10^4) cells.

[7] = system: CD34+CD235+CD41a+ cells; assay: RNAseq analysis of CD34+CD235+CD41a+ cells expanded in HSC expansion conditions; format: cell-based, human
Method: To analyze changes in molecular profile induced by UM171, we isolated CD34^+CD235^+CD41a^+ cells on day 9 of differentiation, cultured them in HSC expansion conditions with UM171 or DMSO for 16 hours and 5 days, and then performed RNAseq analysis of expanded cells.
Total RNA was isolated using RNeasy Micro Kit (Qiagen) and subjected to DNase digestion, according to the manufacturer's protocol. Isolated RNAs were used for either quantitative RT-PCR or RNA sequencing. RNA purity and integrity was evaluated by capillary electrophoresis on the Bioanalyzer 2100 (Agilent Technologies, Santa Clara, Calif.). […] Final sample libraries were quantitated with the Life Technologies Qubit fluorometer and sequenced on the Illumina HiSeq 3000 (SY-401-3001). […] Following quality assessment and filtering for adapter molecules and other sequencing artifacts, the sequencing reads were aligned to transcript sequences corresponding to hg19 human genome annotation. Bowtie v 1.1.2 was used allowing two mismatches in a 25 bp seed and excluding reads with more than 200 alignments^25. RSEM v 1.3.0 was used to estimate isoform or gene relative expression levels in units of “transcripts per million” (tpm), as well as posterior mean estimate of the “expected counts” (the non-normalized absolute number of reads assigned by RSEM to each isoform/gene)^26,27. […]

[8] = system: CD34+CD43+ hPSC-derived HPs; assay: Proliferation and cell cycle (BrdU assay, Ki67 staining) in HP expansion cultures; format: cell-based, human
Method: For apoptosis detection, cells were stained with CD34-FITC, CD45-BV421, and CD43-APC (BD Pharmingen), along with PI and Annexin V-PE (BD Pharmingen), and analyzed by flow cytometry. To assess proliferation of hematopoietic progenitors, using cell proliferation antigen Ki-67, cells were incubated with CD34-PE, CD43-BV421 (BD Pharmingen), and Ghost violet 540 cell viability dye (TONBO Biosciences). Cells were then fixed and permeabilized with 70% ethanol, and stained with Ki67-APC (Miltenyi Biotech), according to the manufacturer protocol, and analyzed by flow cytometry. Cell cycle analysis of total hematopoietic progenitors was carried out using the FITC BrdU flow kit (BD Pharmingen), following manufacturer recommendations. On day four of HP expansion in HSC or lymphoid expansion conditions and on day 3 of NK differentiation cells were labelled with BrdU. After 24 hours, samples were collected and incubated with CD34-PE, CD43-BV421 (BD Pharmingen), and CD45-APC (Miltenyi Biotech); CD34-PE or 34 PerCP, CD45-BV421 (BD Pharmingen), and CD41a-APC (Miltenyi Biotech); CD45-BV421, CD7-PE, and CD34-APC (BD Pharmingen); or CD45-BV421 and CD56-APC (BD Pharmingen), and then counterstained with Ghost violet 540 cell viability dye (TONBO Biosciences). This was followed by fixation, permeabilization, and a 1 hour incubation with DNase at 37° C., to expose incorporated BrdU. After washing, cells were stained first with anti BrdU-FITC, followed by 7AAD, and flow cytometry was performed. CD34^+CD43^+CD45^+ and CD34^+CD43^+CD45^+CD41a^+ hematopoietic progenitors, CD34^+CD45^+CD7^+, lymphoid progenitors, or CD45^+CD56^+ NK cells were then analyzed for cell cycle kinetics and proliferation, through BrdU incorporation.

[9] = 5 days of expansion, UM171 vs DMSO

Structure (SMILES) | fold increase in NK cell output [1] | fold higher numbers of CD34+CD43+CD45+ HPs as compared to control cultures ([2]; 35 nM UM171 vs DMSO, H1 hESC-derived day 9 HPs, SFEM with TPO, SCF, FLT3L, IL3, IL6) | CD201 expression in CD34+CD45+ HPs ([2]; HSC expansion conditions, 35 nM UM171) | number of apoptotic, especially late apoptotic (AnnexinV+PI+) cells [3] | number of viable cells [3] | fold higher absolute numbers of NK cells as compared to DMSO controls ([4]; 35 nM UM171, after 14 days on OP9-DLL4) | stage of NK differentiation at which addition has an effect ([4]; added during first 7 or final 7-14 days) | percentages of NK cells or their phenotype ([4]; after 14 days on OP9-DLL4, UM171 vs DMSO) | fold increase in NK cell output ([4]; lymphoid cultures on OP9-DLL4 with SCF, FLT3L, IL7, 14-day period) | fold increase in NK and T cell output ([4]; lymphoid cultures on OP9-DLL4 with SCF, Flt-3, IL7) | proportion of proliferating CD34+CD45+CD7+ progenitors [5] | effect on CFC potential of expanded cells ([6]; HPs expanded 5 and 7 days with UM171 vs DMSO) | share of G-CFCs in the CD34+CD41a(lo)CD45+ progenitor population ([6]; UM171 cultures with HSC expansion cytokines) [%] | expression of aryl-hydrocarbon receptor target genes ([7]; UM171 vs DMSO, 16 hours and 5 days) | AHR and AHRR expression ([7]; hPSC-derived HPs) | cell cycle distribution of HPs [8, 9] | proliferation of HPs by BrdU assay and Ki67 staining [8, 9] | proportions of CD41a(lo) and CD41a(hi) cells within BrdU+ fraction ([8]; UM171 expansion cultures) | fold higher frequency of proliferating CD41a(lo) HPs as compared to DMSO control ([8]; within BrdU+ fraction, CD34+CD45+ gated, 5 days of expansion)
CC(C)n1cnc2c(NCCc3ccc(O)cc3)nc(-c3csc4ccccc34)nc21 [SR1] | up to 2 fold | – | – | – | – | – | – | – | – | – | – | – | – | – | – | – | – | – | –
Cn1nnc(-c2ccc3c(c2)[nH]c2nc(Cc4ccccc4)nc(NC4CCC(N)CC4)c23)n1 (stereo not shown) [UM171] | – | up to 10 fold | induction of CD201 expression | decreased number of apoptotic | increased number of viable cells | approximately 10 fold | only when added during the first 7 days | no effect | up to 10 fold | up to 10 fold | increases the proportion of proliferating | most dramatic effect on G-CFCs | > 50 | did not affect | minimal effect | predominantly increases the proportion of HPs in the early S phase | increased proliferation | approximately equal proportions | up to 7 fold
